Data as given in US8663653B2, “Efficient cell culture system for hepatitis C virus genotype 2B” (priority 2008, dated 2014).
“Also recorded” adds a separate entry of the source.

Tested on: JFH1-based recombinants of genotypes 1a, 1b, 2a, 2b, and 6a
Assay type: cell-based, hepatitis C virus

SMILES | effect on number of infected cells and supernatant HCV RNA titers
NC(=O)c1ncn([C@@H]2O[C@H](CO)[C@@H](O)[C@H]2O)n1 [ribavirin] | no apparent effect; also recorded: did not decrease the number of infected cells or supernatant HCV RNA titers
NC12CC3CC(CC(C3)C1)C2 [amantadine] | no apparent effect; also recorded: did not decrease the number of infected cells or supernatant HCV RNA titers
